From US20150216870A1, “Combination of PI3K Inhibitor and C-Met Inhibitor” (Novartis AG, priority 2012, published 2015)

What was measured:
NCI-H1648 = experiment: Cell viability (CellTiterGlo) combination dose matrix in NCI-H1648; format: cell-based, human; settings: combination with c-Met inhibitor, 72 h, excluding highest concentration
Procedure: (§1) Compound stocks of both compounds are individually prepared in DMSO. Compounds are serially diluted using a Tecan dispenser to cover a ˜1000× range of concentrations. […] Both single agent and combinations are tested at multiple concentrations, along with controls and one self-cross.
(§2) The cell lines used in this study are purchased from American Type Cell Collection, including human non small cell lung cancer cell lines EBC-1 (which bears c-Met amplification), NCI-H1993 (which bears c-MET amplified), NCI-H1648 (which bears c-Met amplification), NCI-H1573 (which bears c-Met amplification and KRAS mutation) and HCC2935 (EGFR mutation). All cell lines are maintained in their respective culture medium as specified by the provider.
(§3) For the assessment of combination effects, cells are seeded into 384-well plates at 500 cells/well and incubated overnight. […]
(§4) Effects of single agents as well as their combination on cell viability is assessed after 72 hours of incubation at 37° C./5% CO2 by quantification of cellular ATP levels (CellTiterGlo, Promega) using 25 μL reagent/well and n=2 replicate plates per condition. The number/viability of cells at time of compound addition is likewise assessed and used to estimate the population doubling time of a cell line.
(§5) For untreated and treated levels U and T, inhibition is calculated using the formula I=1−T/U, which ranges from 0% to 100% for complete inhibition. […]
(§6) The Loewe expectation [Loewe S., Ergebn Physiol 27: 47-187 (1928)) is calculated at each dose pair CX,Y by finding the inhibition ILoewe such that (CX/ICX)+(CY/ICY)=1, and ICX,Y are the effective concentrations at ILoewe for the fitted single agent curves, using numerical optimization [Berenbaum M C, J Theor Biol 114: 413-431 (1985)]. The “synergy score” S is calculated by averaging the difference between Idata and ILoewe across all the tested combination dose points, excluding the highest concentration point in the dose matrix, which is most likely to be dominated by drug off-target effects. […]

EBC-1 = experiment: Cell viability (CellTiterGlo) combination dose matrix in EBC-1; format: cell-based, human; settings: combination with c-Met inhibitor, 72 h, excluding highest concentration, 0 no inhibition, 1 = 100% inhibition/stasis, 2 = cell death
Procedure: as §1, §2, §3, §4, §5, §6

U-87 MG = experiment: CellTiter-Glo cell viability dose matrix in U-87 MG glioblastoma cells; format: cell-based, human; settings: U87 MG (PTEN mutant, HGF expressing)
Procedure: (§7) The PI3K inhibitor COMPOUND C and the c-MET receptor tyrosine kinase inhibitor 2-fluoro-N-methyl-4-[7-quinolin-6-yl-methyl)-imidazo[1,2-b][1,2,4]triazin-2yl]benzamide are evaluated in combination in glioblastoma tumor models. COMPOUND C (10 mM) and 2-fluoro-N-methyl-4-[7-quinolin-6-yl-methyl)-imidazo[1,2-b][1,2,4]triazin-2yl]benzamide (10 mM) are dissolved in DMSO, and are stored in aliquots at −20° C.
(§8) Human Glioblastoma cell lines, U-87 MG (PTEN mutant and HGF expressing line), H4 (PTEN mutant and HGF expressing line), A172 (PTEN mutant line with low HGF expression level) and LN-229 (PTEN wildtype and HGF low) are purchased from American Type Cell Collection and are maintained in a humidified incubator at 37° C. in 5% CO2 in recommended media. All four cell lines express detected MET at the mRNA level.
(§9) The cells are passaged twice a week and the medium is changed every 2 to 3 days. […]
(§10) Cell viability is determined by measuring cellular ATP content using the CellTiter-Glo® (CTG) luminescent cell viability assay (Promega). […] An equal volume of the CTG reagents is added to each well at the end of the compound treatment and luminescence is recorded on an Envision plate reader (Perkin Elmer). Reduced and enhanced luminescent signal values (responses) are calculated relative to untreated (control) cells. […]

A172 = experiment: CellTiter-Glo cell viability dose matrix in A172 glioblastoma cells; format: cell-based, human; settings: A172 (PTEN mutant, low HGF)
Procedure: as §7, §8, §9, §10

[1] = tested on: U-87 MG human glioblastoma xenograft; experiment: U-87 MG xenograft tumor growth inhibition and tumor growth delay; format: in vivo, nude mice; settings: for T/C or T/T0: D13
Procedure: In this experiment, the U-87 MG human glioblastoma xenograft model is used to assess the anti-tumor efficacy of the PI3K inhibitor COMPOUND C and c-Met inhibitor 2-fluoro-N-methyl-4-[7-quinolin-6-yl-methyl)-imidazo[1,2-b][1,2,4]triazin-2yl]benzamide as single agents or in combination. U-87 MG tumor cells obtained from the National Cancer Institute are reported to be homozygous for likely oncogenic variants of CDKN2A, CDKN2C, CDKN2a, and PTEN; no mutations are detected in MET, PIK3CA, or 58 other genes that are frequently altered in neoplastic cells; and HGF expressing.
Mice are treated daily for 21 days with 17.7 and 35.3 mg/kg of the c-Met inhibitor and 32.7 mg/kg COMPOUND C monotherapies, and with the c-Met inhibitor/COMPOUND C dual therapy at 17.7:32.7. An c-Met inhibitor/COMPOUND C combination at the 58.8:5.4 mg/kg dose ratio was included in the study. The control mice received both vehicles, and a standard preclinical temozolomide regimen monitored tumor model performance. The oral treatments began on Day 1 (D1) in nude mice with established subcutaneous tumors. Each animal was euthanized when its tumor reached the predetermined 2000 mm3 endpoint volume, or on D60, whichever came first. The study was terminated on D51. […] Overall efficacy was determined from the times required for tumors to progress to the volume endpoint, and from D51 survival and regression rates. This report describes the methods and results of the U87MG-e326 tumor growth delay experiment.
The animals are fed ad libitum water (reverse osmosis, 1 ppm CI) and NIH 31 Modified and Irradiated Lab Diet® consisting of 18.0% crude protein, 5.0% crude fat, and 5.0% crude fiber. The mice are housed on irradiated Enrich-O'cobs™ Laboratory Animal Bedding in static microisolators on a 12-hour light cycle at 20-22° C. (68-72° F.) and 40-60% humidity.
The U-87 MG tumor line is obtained from the American Type Culture Collection and maintained by serial engraftment in nude mice. A tumor fragment (1 mm^3) is implanted subcutaneously into the right flank of each test mouse. Tumors are calipered in two dimensions to monitor growth as their mean volume approached the desired 100-150 mm^3 range. Tumor size, in mm^3, was calculated from: Tumor Volume=(width^2×length)/2, where width and length (in mm) are measurements of the tumor. Tumor weight can be estimated with the assumption that 1 mg is equivalent to 1 mm^3 of tumor volume. Fourteen days after tumor cell implantation, on D1 of the study, mice with individual tumor volumes of 63-196 mm^3 are sorted into seven groups, with group mean tumor volumes of 122-127 mm^3.
The c-Met inhibitor 2-fluoro-N-methyl-4-[7-quinolin-6-yl-methyl)-imidazo[1,2-b][1,2,4]triazin-2yl]benzamide (di-HCl salt, 84.98% free base) is stored at 4° C. and is added to deionized water at 2× the final concentration and sonicated until dissolved. An equal volume of 0.5% methylcellulose and 0.1% Tween® 80 in deionized water is added to provide a 5.884 mg/mL dosing solution in 0.25% methylcellulose and 0.05% Tween® 80 in deionized water (Vehicle 1). Portions of this solution are diluted with Vehicle 1 to provide 3.53 and 1.765 mg/mL dosing solutions.
COMPOUND C (HCl salt, 91.85% free base) is stored at −20° C. and is added to 1% Tween® 80 in deionized water and sonicated to obtain a uniform suspension at 2× the final concentration. […] The 0.544 mg/mL dosing suspension is obtained by diluting a portion of the first suspension with Vehicle 2.

NCI-H1993 = experiment: Cell viability (CellTiterGlo) combination dose matrix in NCI-H1993; format: cell-based, human; settings: combination with c-Met inhibitor, 72 h, excluding highest concentration
Procedure: as §1, §2, §3, §4, §5, §6

LN-229 = experiment: CellTiter-Glo cell viability dose matrix in LN-229 glioblastoma cells; format: cell-based, human; settings: LN229 (PTEN wildtype, HGF low)
Procedure: as §7, §8, §9, §10

H4 = experiment: CellTiter-Glo cell viability dose matrix in H4 glioblastoma cells; format: cell-based, human; settings: H4 (PTEN mutant, HGF expressing)
Procedure: as §7, §8, §9, §10

HCC2935 = experiment: Cell viability (CellTiterGlo) combination dose matrix in HCC2935; format: cell-based, human; settings: combination with c-Met inhibitor, 72 h, excluding highest concentration
Procedure: as §1, §2, §3, §4, §5, §6

NCI-H1573 = experiment: Cell viability (CellTiterGlo) combination dose matrix in NCI-H1573; format: cell-based, human; settings: combination with c-Met inhibitor, 72 h, excluding highest concentration
Procedure: as §1, §2, §3, §4, §5, §6

[2] = COMPOUND C 32.7 mg/kg (30 mg/kg free base) p.o. qd x21

## Nc1cc(C(F)(F)F)c(-c2cc(N3CCOCC3)nc(N3CCOCC3)n2)cn1 [COMPOUND C, 5-(2,6-di-morpholin-4-yl-pyrimidin-4-yl)-4-trifluoromethyl-pyridin-2-ylamine]
NCI-H1648
  MaxGI (GImax, combination effectiveness): 1.78
EBC-1
  MaxGI (GImax, combination effectiveness): 1.83
U-87 MG
  anti-proliferative activity (single agent): concentration dependent anti-proliferative activity
A172
  anti-proliferative activity (single agent): concentration dependent anti-proliferative activity
[1]; COMPOUND C 30 mg/kg free base p.o. qd x21
  increase of median TTE: 9.3 days
[1]; [2]
  % TGD: 79%
  T/C or T/T0: 31%
[1]; COMPOUND C 32.7 mg/kg (30 mg/kg free base) p.o. qd x21, listed as CMPD. C
  T/C or T/T0: 31%
[1]; COMPOUND C 32.7 mg/kg (30 mg/kg free base) p.o. qd x21, endpoint 2000 mm3
  Median TTE: 21.0 days
[1]; COMPOUND C 32.7 mg/kg p.o. qd x21, number of animals
  Regress.: 0
NCI-H1993
  MaxGI (GImax, combination effectiveness): 1.67
LN-229
  anti-proliferative activity (single agent): less active
H4
  anti-proliferative activity (single agent): concentration dependent anti-proliferative activity
HCC2935
  MaxGI (GImax, combination effectiveness): 1.37
NCI-H1573
  MaxGI (GImax, combination effectiveness): 1.54
